Data published in the NIST ThermoML archive (doi:10.1021/je060271a).

Settings: 343.15 K, Liquid, Vibrating tube method

CCCCCCC(=O)OCC(COC(=O)CCCCCC)(COC(=O)CCCCCC)COC(=O)CCCCCC [pentaerythritol tetraheptanoate]
Settings	mass density [kg/m3]
5115 kPa	944.4
5119.1 kPa	944.5
5124.1 kPa	944.5
5128.3 kPa	944.5
5132.4 kPa	944.4
5136.3 kPa	944.4
5141.1 kPa	944.4
5145.3 kPa	944.4
5149.6 kPa	944.5
5153.6 kPa	944.5
5158.6 kPa	944.5
5162.9 kPa	944.5
5167.1 kPa	944.5
5172.1 kPa	944.5
5176 kPa	944.4
5180 kPa	944.5
5184.4 kPa	944.4
5189.9 kPa	944.6
5193.9 kPa	944.4
5198 kPa	944.4
5202.4 kPa	944.7
5206.5 kPa	944.5
5211.7 kPa	944.6
5216 kPa	944.6
5220.2 kPa	944.5
5225 kPa	944.6
5229.2 kPa	944.5
5233.5 kPa	944.5
5237.6 kPa	944.5
5243.2 kPa	944.5
5247.3 kPa	944.7
5251.8 kPa	944.5
5256 kPa	944.7
5260.8 kPa	944.6
5265 kPa	944.6
5269.7 kPa	944.6
5273.8 kPa	944.5
5277.8 kPa	944.7
5281.4 kPa	944.6
5285 kPa	944.6
5291.6 kPa	944.7
5300.3 kPa	944.5
5308.9 kPa	944.7
5319.5 kPa	944.7
5328.6 kPa	944.7
5337.3 kPa	944.6
5348.2 kPa	944.6
5357.2 kPa	944.7
5366.4 kPa	944.6
5375.7 kPa	944.6
5386.4 kPa	944.6
5395.4 kPa	944.7
5406.3 kPa	944.9
5415.5 kPa	944.8
5425 kPa	944.8
5434.7 kPa	944.7
5444 kPa	944.7
5453.7 kPa	944.7
5464.8 kPa	944.8
5473.8 kPa	944.7
5485 kPa	945
5494.5 kPa	944.7
5504.2 kPa	944.8
5513.7 kPa	944.8
5525.5 kPa	944.8
5535 kPa	944.7
5544.7 kPa	944.8
5554.7 kPa	944.8
5568 kPa	944.8
5576.2 kPa	944.7
5587.6 kPa	944.8
5597.4 kPa	944.8
5607.3 kPa	944.8
5619.2 kPa	944.8
5629.1 kPa	944.8
5639.1 kPa	944.9
5650.9 kPa	944.9
5660.8 kPa	944.8
5671.1 kPa	944.8
5681.5 kPa	944.7
5694 kPa	944.9
5705.1 kPa	945
5715.3 kPa	944.9
5725.9 kPa	945
5737.8 kPa	944.9
5748.4 kPa	944.8
5758.7 kPa	945
5771 kPa	944.9
5781.7 kPa	944.9
5791.9 kPa	944.9
5802.8 kPa	944.9
5815.5 kPa	945.1
5826.5 kPa	945
5837.6 kPa	945.1
5848.7 kPa	945
5862 kPa	945
5872.5 kPa	944.9
5883.3 kPa	945
5894.5 kPa	945.1
5907.6 kPa	945.1
5918.9 kPa	945
5930.1 kPa	945.1
5941.2 kPa	945
5954.7 kPa	945.1
5965.7 kPa	945.3
5977 kPa	945
5990.6 kPa	945.1
6002 kPa	945
6013.3 kPa	945.2
6026.9 kPa	945.1
6038.5 kPa	945.2
6050.1 kPa	945.1
6063.9 kPa	945.1
6075.5 kPa	945.2
6087.4 kPa	945.2
6099.2 kPa	945.2
6113 kPa	945.2
6125.1 kPa	945.2
6137.2 kPa	945.3
6149.3 kPa	945.1
6163.7 kPa	945.3
6175.6 kPa	945.3
6187.7 kPa	945.2
6199.8 kPa	945.2
6214.5 kPa	945.3
6226.9 kPa	945.3
6239.4 kPa	945.3
6253.9 kPa	945.3
6266.1 kPa	945.3
6278.6 kPa	945.3
6293.3 kPa	945.3
6306.2 kPa	945.3
6319 kPa	945.5
6332 kPa	945.3
6347 kPa	945.4
6359.8 kPa	945.5
6372.6 kPa	945.4
6385.6 kPa	945.4
6400.6 kPa	945.4
6413.9 kPa	945.4
6426.9 kPa	945.3
6442.4 kPa	945.3
6456.1 kPa	945.4
6469 kPa	945.5
6482.7 kPa	945.4
6499.1 kPa	945.6
6512.8 kPa	945.5
6525.9 kPa	945.5
6541.8 kPa	945.6
6555.1 kPa	945.6
6568.9 kPa	945.6
6585.3 kPa	945.5
6598.8 kPa	945.5
6612.5 kPa	945.5
6629.2 kPa	945.6
6643.2 kPa	945.5
6657.6 kPa	945.7
6671.9 kPa	945.5
6687.1 kPa	945.5
6704 kPa	945.6
6718.4 kPa	945.6
6732.5 kPa	945.6
6747.4 kPa	945.7
6764.3 kPa	945.8
6779.2 kPa	945.8
6793.5 kPa	945.7
6811.1 kPa	945.6
6825.8 kPa	945.6
6840.7 kPa	945.8
6855.9 kPa	945.7
6874.2 kPa	945.8
6887.1 kPa	945.8
6904.9 kPa	945.9
6920.2 kPa	945.8
6935.6 kPa	945.8
6953.6 kPa	945.8
6968.8 kPa	945.9
6984.8 kPa	945.8
7000.2 kPa	945.7
7019.2 kPa	946
7034.9 kPa	945.7
7050.8 kPa	945.8
7069.3 kPa	945.8
7085.7 kPa	945.9
7101.8 kPa	945.9
7117.8 kPa	946
7137.2 kPa	945.9
7153.2 kPa	946
7169.6 kPa	945.9
7186 kPa	945.8
7205.5 kPa	945.9
7221.8 kPa	946
7241.8 kPa	946
7258.6 kPa	946
7275.1 kPa	945.9
7292.1 kPa	946.1
7312.3 kPa	946.1
7329.7 kPa	946.2
7347 kPa	946.1
7364.6 kPa	946.1
7385.1 kPa	946.1
7402.4 kPa	946.2
7420 kPa	946.2
7437.8 kPa	946.2
7458.7 kPa	946.2
7476.1 kPa	946.2
7494.2 kPa	946.1
7515.3 kPa	946.3
7533.4 kPa	946.1
7551.9 kPa	946.3
7570.4 kPa	946.3
7592.1 kPa	946.3
7610.3 kPa	946.4
7628.9 kPa	946.4
7650.8 kPa	946.3
7669.1 kPa	946.3
7688.1 kPa	946.3
7710.2 kPa	946.3
7729.2 kPa	946.3
7748.3 kPa	946.4
7767.5 kPa	946.4
7790.8 kPa	946.4
7810.5 kPa	946.5
7830.3 kPa	946.5
